ChEMBL document CHEMBL1201862, “PubChem BioAssay data set” (2004)
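96-well plates; 48 h exposure; 5 concentrations. Endpoints by linear interpolation between flanking doses. Not reached: highest tested concentration assigned. At the GI50, growth is halved.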 Activity calls are given as the source filed them. Rule as the data show it: active = GI50 up to about 1.1 µM and inactive = higher.

Assays:
Assay in all cases: NCI tumour cell line growth inhibition, 48 h
[1] = tested on: 786-0
[2] = tested on: ACHN
[3] = tested on: HCT-116
[4] = tested on: M14
[5] = tested on: MDA-MB-231
[6] = tested on: MDA-MB-435
[7] = tested on: NCI-H226
[8] = tested on: NCI-H460
[9] = tested on: NCI-H522
[10] = tested on: NCI/ADR-RES
[11] = tested on: OVCAR-3
[12] = tested on: RXF 393
[13] = tested on: SF-295
[14] = tested on: SF-539
[15] = tested on: SR
[16] = tested on: SW-620
[17] = tested on: TK-10
[18] = tested on: UACC-62
[19] = tested on: HT-29
[20] = tested on: SNB-75

| SMILES | GI50 [1] | GI50 [2] | GI50 [3] | GI50 [4] | GI50 [5] | GI50 [6] | GI50 [7] | GI50 [8] | GI50 [9] | GI50 [10] | GI50 [11] | GI50 [12] | GI50 [13] | GI50 [14] | GI50 [15] | GI50 [16] | GI50 [17] | GI50 [18] | GI50 [19] | GI50 [20] |
| --- | --- | --- | --- | --- | --- | --- | --- | --- | --- | --- | --- | --- | --- | --- | --- | --- | --- | --- | --- | --- |
| CCOC(=O)c1sc2nc(SC)nc(Nc3ccc4c(c3)OCO4)c2c1N | 21.6 µM (inactive) | 19.9 µM (inactive) | > 100 µM (inactive) | 41.9 µM (inactive) | 26 µM (inactive) | > 100 µM (inactive) | 71.3 µM (inactive) | > 100 µM (inactive) | 46.7 µM (inactive) | 64.6 µM (inactive) | 37.4 µM (inactive) | 10.9 µM (inactive) | 16 µM (inactive) | 32.9 µM (inactive) | > 100 µM (inactive) | 4.34 µM (inactive) | 30.9 µM (inactive) | 25.1 µM (inactive) |  |  |
| Cc1nc(C)c(Cc2ccccc2)o1 | > 100 µM (inactive) | > 100 µM (inactive) | > 100 µM (inactive) | > 100 µM (inactive) | > 100 µM (inactive) | > 100 µM (inactive) | > 100 µM (inactive) | > 100 µM (inactive) | > 100 µM (inactive) | > 100 µM (inactive) | 98.2 µM (inactive) | > 100 µM (inactive) | > 100 µM (inactive) | > 100 µM (inactive) |  | > 100 µM (inactive) | > 100 µM (inactive) | > 100 µM (inactive) | > 100 µM (inactive) | 41.4 µM (inactive) |
| Cc1nc(O)nc(N(CCO)/N=C/c2ccc(Cl)cc2)c1C(=O)Nc1ccc(Cl)cc1 | > 100 µM (inactive) | > 100 µM (inactive) | 57.8 µM (inactive) | 87.3 µM (inactive) | 36.7 µM (inactive) | > 100 µM (inactive) | 72.6 µM (inactive) | > 100 µM (inactive) | > 100 µM (inactive) | > 100 µM (inactive) | > 100 µM (inactive) | 24.7 µM (inactive) | > 100 µM (inactive) | > 100 µM (inactive) |  | > 100 µM (inactive) | 85.3 µM (inactive) | > 100 µM (inactive) | > 100 µM (inactive) | 55.2 µM (inactive) |
| O=C1CC(=O)N(C2CCCCC2)C(=O)N1c1ccccc1S(=O)(=O)Oc1ccccc1 | 18.1 µM (inactive) | 19.1 µM (inactive) | > 100 µM (inactive) | > 100 µM (inactive) | > 100 µM (inactive) | > 100 µM (inactive) |  | > 100 µM (inactive) |  | > 100 µM (inactive) | > 100 µM (inactive) | > 100 µM (inactive) | > 100 µM (inactive) | > 100 µM (inactive) | > 100 µM (inactive) | > 100 µM (inactive) | > 100 µM (inactive) | > 100 µM (inactive) | > 100 µM (inactive) | > 100 µM (inactive) |
| NC(Cc1ccc(OCc2ccccc2)cn1)C(=O)O (stereo not given) | > 100 µM (inactive) | > 100 µM (inactive) | > 100 µM (inactive) |  | > 100 µM (inactive) | > 100 µM (inactive) | > 100 µM (inactive) | > 100 µM (inactive) | > 100 µM (inactive) | > 100 µM (inactive) | > 100 µM (inactive) | > 100 µM (inactive) | > 100 µM (inactive) | > 100 µM (inactive) | > 100 µM (inactive) | > 100 µM (inactive) | > 100 µM (inactive) |  | > 100 µM (inactive) |  |
| [BH3-][P+]1(CC[P@@+]([BH3-])(c2ccccc2)c2ccccc2OC)[C@@H](C)[C@@H](O)[C@H](O)[C@@H]1C (stereo not given in full) | 27.2 µM (inactive) | 17.6 µM (inactive) | 17.7 µM (inactive) | 16.7 µM (inactive) | 16 µM (inactive) | 16.7 µM (inactive) | 17.3 µM (inactive) | 16.4 µM (inactive) | 12.4 µM (inactive) | 16.5 µM (inactive) | 16.1 µM (inactive) | 16.4 µM (inactive) | 15.8 µM (inactive) | 16.5 µM (inactive) |  | 16.9 µM (inactive) | 17.8 µM (inactive) | 14.8 µM (inactive) | 22.6 µM (inactive) | 14.8 µM (inactive) |
| CCOC(=O)C1c2[nH]c3ccccc3c2CCN1C(=O)c1ccco1 (stereo not given) | > 10 µM (inactive) | > 10 µM (inactive) | > 10 µM (inactive) | > 10 µM (inactive) | > 10 µM (inactive) | > 10 µM (inactive) |  |  |  | > 10 µM (inactive) | > 10 µM (inactive) |  | > 10 µM (inactive) | > 10 µM (inactive) | > 10 µM (inactive) | > 10 µM (inactive) | > 10 µM (inactive) | > 10 µM (inactive) | > 10 µM (inactive) | > 10 µM (inactive) |
| CSc1nc(Cl)c2c(n1)Sc1nc3cc4c(cc3n1C2O)OCCO4 (stereo not given) | 0.0336 µM (active) | 0.131 µM (active) | 0.0146 µM (active) | 0.0951 µM (active) | 0.321 µM (active) | 0.0158 µM (active) | 0.276 µM (active) | 0.0897 µM (active) | 0.0382 µM (active) | 0.149 µM (active) | 0.137 µM (active) | 0.354 µM (active) | 0.379 µM (active) | 0.0247 µM (active) |  | 0.0153 µM (active) | 0.962 µM (active) | 0.125 µM (active) | 0.0226 µM (active) | 1.74 µM (inactive) |
